The target in this assay is human F508del-CFTR (Homo sapiens, UniProt P13569, DEL508-508). The assay is described as follows: F508del-CFTR cell surface expression (corrector activity), DiscoveRx ß-galactosidase complementation chemiluminescence assay in recombinant U2OS cell line.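 As to all read-outs here: U2OS cells co-expressing ProLink-tagged F508del-CFTR and a membrane-anchored enzyme acceptor, where more surface CFTR restores β-galactosidase activity measured by chemiluminescence.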 Particulars: for pEC50: EC50, F508del-CFTR cell surface expression, U2OS cells, 16h compound incubation, geomean values; for Emax: U2OS, in relation to Emax of corrector lumacaftor (=100%), arithmetic mean values.
human F508del-CFTR, sequence (P13569 with tags, fused parts or gaps DEL508-508): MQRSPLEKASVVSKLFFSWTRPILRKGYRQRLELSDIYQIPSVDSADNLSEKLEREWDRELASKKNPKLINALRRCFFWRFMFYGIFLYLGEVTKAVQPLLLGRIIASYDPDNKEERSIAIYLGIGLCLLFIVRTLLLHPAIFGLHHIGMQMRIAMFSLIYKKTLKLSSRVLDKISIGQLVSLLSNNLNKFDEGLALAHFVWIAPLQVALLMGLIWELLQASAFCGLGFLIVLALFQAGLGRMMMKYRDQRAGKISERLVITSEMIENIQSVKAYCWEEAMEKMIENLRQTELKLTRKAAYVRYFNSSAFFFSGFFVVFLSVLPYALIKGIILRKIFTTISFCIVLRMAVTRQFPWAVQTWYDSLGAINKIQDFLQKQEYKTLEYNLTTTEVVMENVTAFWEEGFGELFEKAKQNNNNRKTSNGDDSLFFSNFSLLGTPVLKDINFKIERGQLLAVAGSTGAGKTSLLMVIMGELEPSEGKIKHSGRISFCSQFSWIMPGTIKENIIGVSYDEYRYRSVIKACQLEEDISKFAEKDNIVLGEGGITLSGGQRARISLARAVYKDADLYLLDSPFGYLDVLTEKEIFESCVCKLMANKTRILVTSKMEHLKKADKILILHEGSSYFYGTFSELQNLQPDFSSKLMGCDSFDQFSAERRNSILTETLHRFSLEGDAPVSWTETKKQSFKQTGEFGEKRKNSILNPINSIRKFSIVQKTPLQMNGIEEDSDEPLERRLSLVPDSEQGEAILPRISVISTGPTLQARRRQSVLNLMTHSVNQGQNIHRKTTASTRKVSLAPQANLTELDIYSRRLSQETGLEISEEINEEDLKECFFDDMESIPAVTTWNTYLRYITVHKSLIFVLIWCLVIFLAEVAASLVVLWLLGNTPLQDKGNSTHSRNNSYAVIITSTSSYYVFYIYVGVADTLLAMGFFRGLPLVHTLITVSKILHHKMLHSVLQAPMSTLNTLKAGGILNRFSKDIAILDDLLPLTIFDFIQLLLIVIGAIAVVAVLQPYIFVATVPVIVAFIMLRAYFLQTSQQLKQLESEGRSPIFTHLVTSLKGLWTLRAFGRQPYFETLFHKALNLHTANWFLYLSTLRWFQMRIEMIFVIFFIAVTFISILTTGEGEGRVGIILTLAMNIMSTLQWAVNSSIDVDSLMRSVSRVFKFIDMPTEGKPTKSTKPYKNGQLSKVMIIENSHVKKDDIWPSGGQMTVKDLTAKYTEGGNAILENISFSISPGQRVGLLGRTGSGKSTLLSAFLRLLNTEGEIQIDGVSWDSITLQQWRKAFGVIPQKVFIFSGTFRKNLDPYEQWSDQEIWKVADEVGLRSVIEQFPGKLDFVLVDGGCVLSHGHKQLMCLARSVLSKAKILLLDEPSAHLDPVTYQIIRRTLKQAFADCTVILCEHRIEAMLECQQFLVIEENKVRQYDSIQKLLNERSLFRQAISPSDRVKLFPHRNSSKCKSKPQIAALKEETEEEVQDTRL

pEC50: −log10 of the molar value.

Method: The method measures the effect of over-night compound incubation on F508del-CFTR cell surface expression in a recombinant U2OS cell line (DiscoveRx, #93-0987C3). This cell line is engineered to co-express (i) human F508del-CFTR tagged with a Prolink (PK=short ß-galactosidase fragment) and (ii) the remainder of the ß-galactosidase enzyme (Enzyme Acceptor; EA) localized to the plasma membrane. Incubation with compounds that increase PK-tagged F508del-CFTR at the plasma membrane will lead to complementation of the EA fragment to form a functional ß-galactosidase enzyme which is quantified by a chemiluminescence reaction.
The cells are incubated for 5h in the incubator before the addition of 5 μl/well of compound dilution series (5× working stocks in full medium). […] The cells are co-incubated with the compounds for 16h in the incubator at 37° C., 5% CO2. The next day, the cell plates are incubated for 2h at RT in the dark. […] Concentration-response curves are generated using compound-intrinsic maximal efficacy as upper plateau, and from these CRCs compound-intrinsic EC50 values are determined.
The calculated EC50 values may fluctuate depending on the daily assay performance. […] EC50 values from several measurements are given as geomean values. The calculated Emax values may fluctuate depending on the daily assay performance. […] Emax values from several measurements are given as arithmetic mean values.

For `COc1cc(CCNC(=O)[C@@H]2CC(=O)N(C)[C@@H](CC(C)C)C(=O)N(C)[C@H](CC(F)(F)F)C(=O)N[C@H](Cc3ccccc3)COc3ccnc(OC)c3C(=O)N2)on1` [Example 776, (3R,6R,9S,13S)-3-benzyl-9-isobutyl-16-methoxy-N-(2-(3-methoxyisoxazol-5-yl)ethyl)-7,10-dimethyl-5,8,11,15-tetraoxo-6-(2,2,2-trifluoroethyl)-2,3,4,5,6,7,8,9,10,11,12,13,14,15-tetradecahydropyrido[3,4-p][1]oxa[4,7,10,14]tetraazacycloheptadecine-13-carboxamide], the negative logarithm of the EC50 (pEC50) (as a rule, the EC50 on a negative log10 scale, so that one unit is a factor of ten) is 6.49 and the Emax – broadly, the greatest response seen or fitted, relative to the assay's reference – came to 360%.

As to `CC(C)C[C@H]1C(=O)N2CCCC[C@H]2C(=O)N[C@H](Cc2ccccc2)COc2ccc3ncc(F)cc3c2C(=O)N[C@H](C(=O)NCCc2cc(C3CC3)no2)CC(=O)N1C` [Example 777, (9S,13S,19aS,22R)-22-benzyl-N-(2-(3-cyclopropylisoxazol-5-yl)ethyl)-5-fluoro-13-isobutyl-12-methyl-7,11,14,20-tetraoxo-7,8,9,10,11,12,13,14,17,18,19,19a,20,21,22,23-hexadecahydro-16H-pyrido[2′,1′:6,7][1]oxa[4,7,10,14]tetraazacycloheptadecino[16,17-f]quinoline-9-carboxamide], the negative logarithm of the EC50 (pEC50) is 6.06 and the Emax worked out at 216%.

In the case of `CC(C)C[C@H]1C(=O)N2CCCC[C@@H]2C(=O)N[C@H](Cc2ccccc2)COc2ccc3ncc(F)cc3c2C(=O)N[C@H](C(=O)NCCn2ncc(C3CC3)n2)CC(=O)N1C` [Example 778, (9S,13S,19aR,22R)-22-benzyl-N-(2-(4-cyclopropyl-2H-1,2,3-triazol-2-yl)ethyl)-5-fluoro-13-isobutyl-12-methyl-7,11,14,20-tetraoxo-7,8,9,10,11,12,13,14,17,18,19,19a,20,21,22,23-hexadecahydro-16H-pyrido[2′,11:6,7][1]oxa[4,7,10,14]tetraazacycloheptadecino[16,17-f]quinoline-9-carboxamide], the pEC50 was 6.85 and the Emax stood at 302%.

As for `CC(C)C[C@H]1C(=O)N2CCCC[C@H]2C(=O)N[C@H](Cc2ccccc2)COc2ccc3ncc(F)cc3c2C(=O)N[C@H](C(=O)NCCn2ncc(C3CC3)n2)CC(=O)N1C` [Example 779, (9S,13S,19aS,22R)-22-benzyl-N-(2-(4-cyclopropyl-2H-1,2,3-triazol-2-yl)ethyl)-5-fluoro-13-isobutyl-12-methyl-7,11,14,20-tetraoxo-7,8,9,10,11,12,13,14,17,18,19,19a,20,21,22,23-hexadecahydro-16H-pyrido[2′,11:6,7][1]oxa[4,7,10,14]tetraazacycloheptadecino[16,17-f]quinoline-9-carboxamide], the pEC50 was 6.09 and the Emax stood at 213%.

In the case of `CC(C)C[C@H]1C(=O)N2CCCC[C@@H]2C(=O)N[C@H](Cc2ccccc2)COc2ccc3ncc(F)cc3c2C(=O)N[C@H](C(=O)NCCc2nc(C3CC3)no2)CC(=O)N1C` [Example 780, (9S,13S,19aR,22R)-22-benzyl-N-(2-(3-cyclopropyl-1,2,4-oxadiazol-5-yl)ethyl)-5-fluoro-13-isobutyl-12-methyl-7,11,14,20-tetraoxo-7,8,9,10,11,12,13,14,17,18,19,19a,20,21,22,23-hexadecahydro-16H-pyrido[2′,1′:6,7][1]oxa[4,7,10,14]tetraazacycloheptadecino[16,17-f]quinoline-9-carboxamide], the pEC50 is 6.94 and the Emax came out at 280%.

As to `CC(C)C[C@H]1C(=O)N2CCCC[C@@H]2C(=O)N[C@H](Cc2ccccc2)COc2ccc3ncc(F)cc3c2C(=O)N[C@H](C(=O)NCCc2cc(C3CC3)on2)CC(=O)N1C` [Example 781, (9S,13S,19aR,22R)-22-benzyl-N-(2-(5-cyclopropylisoxazol-3-yl)ethyl)-5-fluoro-13-isobutyl-12-methyl-7,11,14,20-tetraoxo-7,8,9,10,11,12,13,14,17,18,19,19a,20,21,22,23-hexadecahydro-16H-pyrido[2′,1′:6,7][1]oxa[4,7,10,14]tetraazacycloheptadecino[16,17-f]quinoline-9-carboxamide], the pEC50 was 6.91 and the Emax was 296%.

In the case of `COc1cccc2c1C(=O)N[C@H](C(=O)NCCc1noc(C3CC3)n1)CC(=O)N(C)[C@@H](CC(C)C)C(=O)N(C)[C@H](Cc1nc(-c3ccc(F)cn3)no1)C(=O)N[C@H](Cc1ccccc1)CO2` [Example 782, (3R,6R,9S,13S)-3-benzyl-N-(2-(5-cyclopropyl-1,2,4-oxadiazol-3-yl)ethyl)-6-((3-(5-fluoropyridin-2-yl)-1,2,4-oxadiazol-5-yl)methyl)-9-isobutyl-16-methoxy-7,10-dimethyl-5,8,11,15-tetraoxo-2,3,4,5,6,7,8,9,10,11,12,13,14,15-tetradecahydropyrido[3,4-p][1]oxa[4,7,10,14]tetraazacycloheptadecine-13-carboxamide], the negative logarithm of the EC50 (pEC50) was 6.07 and the Emax was found to be 439%.

For `COc1cc(CCNC(=O)[C@@H]2CC(=O)N(C)[C@@H](CC(C)C)C(=O)N(C)[C@H](Cc3nc(-c4ccc(F)cn4)no3)C(=O)N[C@H](Cc3ccccc3)COc3ccnc(OC)c3C(=O)N2)on1` [Example 783, (3R,6R,9S,13S)-3-benzyl-6-((3-(5-fluoropyridin-2-yl)-1,2,4-oxadiazol-5-yl)methyl)-9-isobutyl-16-methoxy-N-(2-(3-methoxyisoxazol-5-yl)ethyl)-7,10-dimethyl-5,8,11,15-tetraoxo-2,3,4,5,6,7,8,9,10,11,12,13,14,15-tetradecahydropyrido[3,4-p][1]oxa[4,7,10,14]tetraazacycloheptadecine-13-carboxamide], the pEC50 was 6.05 and the Emax came to 410%.

Turning to `CC[C@@H]1C(=O)N[C@H](Cc2ccccc2)COc2cc(C)nc(OC)c2C(=O)N[C@H](C(=O)NCCc2cc(OC)no2)CC(=O)N(C)[C@@H](CC(C)C)C(=O)N1C` [Example 784, (3R,6R,9S,13S)-3-benzyl-6-ethyl-9-isobutyl-16-methoxy-N-(2-(3-methoxyisoxazol-5-yl)ethyl)-7,10,18-trimethyl-5,8,11,15-tetraoxo-2,3,4,5,6,7,8,9,10,11,12,13,14,15-tetradecahydropyrido[3,4-p][1]oxa[4,7,10,14]tetraazacycloheptadecine-13-carboxamide], the pEC50 was 6.51 and the maximum response (Emax) was 391%.

For the compound `COc1cc(CCNC(=O)[C@@H]2CC(=O)N(C)[C@@H](CC(C)C)C(=O)N(C)[C@H](CC(F)F)C(=O)N[C@H](Cc3ccccc3)COc3cc(C)nc(OC)c3C(=O)N2)on1` [Example 785, (3R,6R,9S,13S)-3-benzyl-6-(2,2-difluoroethyl)-9-isobutyl-16-methoxy-N-(2-(3-methoxyisoxazol-5-yl)ethyl)-7,10,18-trimethyl-5,8,11,15-tetraoxo-2,3,4,5,6,7,8,9,10,11,12,13,14,15-tetradecahydropyrido[3,4-p][1]oxa[4,7,10,14]tetraazacycloheptadecine-13-carboxamide], the pEC50 was 6.68 and the Emax was 365%.

`COc1cc(CCNC(=O)[C@@H]2CC(=O)N(C)[C@@H](CC(C)C)C(=O)N(C)[C@H](C)C(=O)N[C@H](Cc3ccccc3)COc3ccc4ncc(F)cc4c3C(=O)N2)on1` [Example 786, (3S,7S,10R,13R)-13-benzyl-20-fluoro-7-isobutyl-N-(2-(3-methoxyisoxazol-5-yl)ethyl)-6,9,10-trimethyl-1,5,8,11-tetraoxo-1,2,3,4,5,6,7,8,9,10,11,12,13,14-tetradecahydro-[1]oxa[4,7,10,14]tetraazacycloheptadecino[16,17-f]quinoline-3-carboxamide]: the pEC50 is 6.81 and the maximum response (Emax) came to 337%.

For the compound `CC(C)C[C@H]1C(=O)N(C)[C@H](C)C(=O)N[C@H](Cc2ccccc2)COc2ccc3ncc(F)cc3c2C(=O)N[C@H](C(=O)NCCn2ncc(C3CC3)n2)CC(=O)N1C` [Example 787, (3S,7S,10R,13R)-13-benzyl-N-(2-(4-cyclopropyl-2H-1,2,3-triazol-2-yl)ethyl)-20-fluoro-7-isobutyl-6,9,10-trimethyl-1,5,8,11-tetraoxo-1,2,3,4,5,6,7,8,9,10,11,12,13,14-tetradecahydro-[1]oxa[4,7,10,14]tetraazacycloheptadecino[16,17-f]quinoline-3-carboxamide], the negative-log EC50 (pEC50) was 6.72 and the Emax was determined as 323%.

For `COc1cccc(CCNC(=O)[C@@H]2CC(=O)N(C)[C@@H](CC(C)C)C(=O)N(C)[C@H](C)C(=O)N[C@H](Cc3ccccc3)COc3ccc4nccn4c3C(=O)N2)c1` [Example 788, (3S,7S,10R,13R)-13-benzyl-7-isobutyl-N-(3-methoxyphenethyl)-6,9,10-trimethyl-1,5,8,11-tetraoxo-1,2,3,4,5,6,7,8,9,10,11,12,13,14-tetradecahydroimidazo[1′,2′:1,6]pyrido[2,3-p][1]oxa[4,7,10,14]tetraazacycloheptadecine-3-carboxamide], the negative logarithm of the EC50 (pEC50) was 6.26 and the maximal effect (Emax) turned out to be 344%.

For the compound `COc1cc(CCNC(=O)[C@@H]2CC(=O)N(C)[C@@H](CC(C)C)C(=O)N(C)[C@H](C)C(=O)N[C@H](Cc3ccccc3)COc3ccc4nccn4c3C(=O)N2)on1` [Example 789, (3S,7S,10R,13R)-13-benzyl-7-isobutyl-N-(2-(3-methoxyisoxazol-5-yl)ethyl)-6,9,10-trimethyl-1,5,8,11-tetraoxo-1,2,3,4,5,6,7,8,9,10,11,12,13,14-tetradecahydroimidazo[1′,2′:1,6]pyrido[2,3-p][1]oxa[4,7,10,14]tetraazacycloheptadecine-3-carboxamide], the pEC50 is 6.17 and the Emax came to 358%.

For the compound `CC(C)C[C@H]1C(=O)N(C)[C@H](C)C(=O)N[C@H](Cc2ccccc2)COc2ccc3nccn3c2C(=O)N[C@H](C(=O)NCCc2cc(C3CC3)no2)CC(=O)N1C` [Example 790, (3S,7S,10R,13R)-13-benzyl-N-(2-(3-cyclopropylisoxazol-5-yl)ethyl)-7-isobutyl-6,9,10-trimethyl-1,5,8,11-tetraoxo-1,2,3,4,5,6,7,8,9,10,11,12,13,14-tetradecahydroimidazo[1′,2′:1,6]pyrido[2,3-p][1]oxa[4,7,10,14]tetraazacycloheptadecine-3-carboxamide], the pEC50 is 6.19 and the maximum response (Emax) was 350%.
